Results: patent US20090239875A1, “Protection of ferulic acid and/or tetramethylpyrazine against retinal ischaemia, glaucoma and siderosis oculi” (Committee on Chinese Medicine and Pharmacy, Department of …, priority 2008, published 2009)

Assays:
[1] = tested on: rats subjected to 60 min retinal ischaemia plus reperfusion (I/R); assay: Flash ERG b-wave ratio after 60 min HIOP-induced retinal ischaemia plus reperfusion; format: in vivo, Wistar rat
Source text: Six-week old Wistar rats (body weight: 250˜500 g) were anaesthetized with an intramuscular injection of ketamine and xylazine as described above and placed in a stereotaxic frame. The anterior chamber of one eye, with the other serving as control, was cannulated with a 30-gauge needle connected to a 0.9% saline reservoir; this caused an increase in IOP to 120 mmHg. A whitening of the iris and the fundus of the retina confirmed induction of an ischaemic insult (Block, F., et al. Gen Pharmacol. 30(3):281-7, 1997).
(§1) For electro-physiological, immuohistochemical, and molecular biological studies, drug administration was carried out with pre-administration (60 minutes before HIOP) of vehicle (saline for FA/TMP), FA (0.5 or 0.1 nmole), or TMP (0.5 nmole). The 60-minute HIOP procedure to induce ischaemic damage was carried out as defined. Intra-vitreous injection (i.v.i.) of 5 μl of each compound was given to the ‘ischaemic’ eye of each test rat using a 30-gauge needle attached to a 20 μl Hamilton syringe. As a control, the same volume of vehicle was intravitreously injected into the “ischaemic” eye of each control rat. In both cases, the fellow untreated eye acted as a normal control eye. In this case, FA, TMP, or vehicle was applied only to the eye (ipsilateral) which received ischaemia. Dose-response experiments for FA will also be performed.

[2] = tested on: ChAT immunoreactivity (cholinergic amacrine cells) in the ischaemic retina; assay: ChAT immunofluorescence of the retina after ischaemia/reperfusion; format: in vivo, Wistar rat; settings: 7 days reperfusion
Experimental: On day 7 after retinal ischaemia pre-treated with vehicle or tested compounds, the Wistar rats were killed by an overdose of sodium pentobarbitone injected into the peritoneal cavity as mentioned earlier. Rat retinas were carefully and rapidly dissected from the eyecups with the aim of completely detaching the sensory retina from the RPEs. They were incubated in Mg^2+-free Locke's buffer containing: 154 mM NaCl, 5.6 mM KCl, 2.3 mM CaCl2, 3.6 mM NaHCO3, 5 mM N-[2-hydroxyethyl]piperazine-N′-[2-ethanesulfonic acid] (HEPES) and 5.6 mM D-glucose. The Locke's solution was briefly equilibrated before use with a gas mixture of 95% O2 and 5% CO2 at 37° C., pH 7.4. Retinal pieces were fixed for a further 45 minutes in 4% (w/v) paraformaldehyde in sodium phosphate buffer (0.2 M NaH2PO4.2H2O; 0.2M Na2HPO4; pH 7.4) and then transferred to 30% sucrose in sodium phosphate buffer for cryosectioning. Retinas were orientated and similarly mounted on a metal stand using O.C.T. compound (Merck Ltd) and then promptly frozen with dry ice. In this way, sections from similar areas were produced and thus the retinal sections (10 μm) had approximately the same eccentricity, which allowed direct comparison. […]

[3] = tested on: Thy-1 immunoreactivity (retinal ganglion cells) in the ischaemic retina; assay: Thy-1 immunofluorescence of the retina after ischaemia/reperfusion; format: in vivo, Wistar rat; settings: 0.5 nmole i.v.i. pre-treatment; 7 days after I/R
Experimental: as §1
On day 7 after retinal ischaemia pre-treated with vehicle or tested compounds, the Wistar rats were killed by an overdose of sodium pentobarbitone injected into the peritoneal cavity as mentioned earlier. Rat retinas were carefully and rapidly dissected from the eyecups with the aim of completely detaching the sensory retina from the RPEs. They were incubated in Mg^2+-free Locke's buffer containing: 154 mM NaCl, 5.6 mM KCl, 2.3 mM CaCl2, 3.6 mM NaHCO3, 5 mM N-[2-hydroxyethyl]piperazine-N′-[2-ethanesulfonic acid] (HEPES) and 5.6 mM D-glucose. […]

[4] = tested on: Thy-1 mRNA; assay: Semi-quantitative RT-PCR of Thy-1 mRNA in the retina after ischaemia/reperfusion; format: in vivo, Wistar rat; settings: 7 days after I/R, sham operation 100.0000, n=4
Experimental: as §1
Levels of Thy-1 mRNAs present in the retinas were determined using a semi-quantitative RT-PCR technique. These were compared with the mRNA levels measured for the house-keeping gene β-actin as an internal standard (Nucci, C., et al. Invest Opthalmol V is Sci. 48(7):2997-3004, 2007). Seven days after sham operation alone or retinal ischaemia pre-treated with vehicle or defined chemicals, the rats were killed and the retinas removed and sonicated in TriReagent (as per manufacturer's instructions). Total retinal RNA was isolated and first strand cDNA synthesis was performed on 4 μg DNase-treated RNA (Nash, M. S., et al. Invest. Opthalmol. Vis. Sci. 40:1293-8, 1999). […]
The PCR reaction products were separated on 1.5% agarose gels using ethidium bromide for visualization. The relative abundance of each PCR product was determined by analyzing photographs of the gels by SigmaScan (Jandel Scientific, Corte Madera, Calif.). […]

[5] = tested on: hydroxyl radicals (.OH); assay: Salicylate trapping / vitreous microdialysis of hydroxyl radicals (2,3-DHBA) in HIOP-induced retinal ischaemia; format: in vivo, Wistar rat; settings: for Levels of 2,3-DHBA (.OH) in vitreous dialysate: at 60 minutes of HIOP-induced retinal ischaemia, n=4
Source text: Rats were anesthetized and placed in a stereotaxic frame. This approach was adapted from Louzada-Junior et al with further modification. The microdilaysis tube was inserted into the vitreous cavity through the nonvascular pars plana of the sclera (0.5 mm from the corneal limbus) after it had been pre-punctured with a 25-gauge needle. This avoided the problem of bleeding into the vitreous cavity with consequent contamination of vitreous. With the microdialysis probe in position, the whole retina was subjected to HIOP-induced ischaemia for 120 minutes.
After an equilibration period of 45 min, a stable baseline was obtained. HIOP-induced retinal ischaemia was then performed. Samples were collected every 15 minutes starting 45 minutes before ischaemia and continuing for the subsequent 120-minute ischaemia. The microdialysates collected from the microdialysis probe were deposited into polyethylene vials (Microbiotech, Stockholm, Sweden) containing 15 μl of 0.1 M perchloric acid and were stored at −70° C. until analysis. The formation of .OH was quantified as the increase in 2,3-DHBA, which is the hydroxylative product of salicylic acid. Since 2,5-DHBA can also be produced via enzymatic pathways by virtue of P-450, 2,3-DHBA is considered to be a specific marker of .OH. Eluted microdialysates were directly injected into and 2,3-DHBA was analyzed by a high performance liquid chromatograph coupled with an electrochemical detector (HPLC-EC; Model LC-4C, Bioanalytical System Inc., West Lafayette, IN, USA).
The DHBA compound was oxidized using a glassy carbon working electrode (oxidation potential: +750 mV; model MF 1000, Bioanalytical System Inc., West Lafayette, IN, USA) and an Ag/AgCl reference electrode (model MW 2021, Bioanalytical System Inc., West Lafayette, IN, USA) with a special thin-layer gasket for the microbore LC-EC. In order to minimize dead volume, the column was connected directly between the micro-sampler and the working electrode. The mobile phase included 1-heptane sulfonic acid sodium salt (MW: 202.25) 3.15 g, EDTA 0.15 g, phosphoric acid 4.5 ml, triethylamine 5.25 ml, acetonitrile 255 ml, distilled water (added to 1.5 liters), pH 2.7. […] This is the first invention utilizing the defined modified microdialysis system for the measurement of .OH in the rat eye in vivo.
For electro-physiological, immuohistochemical, and molecular biological studies, drug administration was carried out with pre-administration (60 minutes before HIOP) of vehicle (saline for FA/TMP), FA (0.5 or 0.1 nmole), or TMP (0.5 nmole). The 60-minute HIOP procedure to induce ischaemic damage was carried out as defined. Intra-vitreous injection (i.v.i.) of 5 μl of each compound was given to the ‘ischaemic’ eye of each test rat using a 30-gauge needle attached to a 20 μl Hamilton syringe. […]

[6] = tested on: ChAT immunoreactivity (cholinergic amacrine neurones) in the siderotic retina; assay: ChAT immunofluorescence of the retina after experimental siderosis; format: in vivo, Wistar rat; settings: 0.5 nmole i.v.i. 60 minutes before siderosis; 25 nmole FeSO4 for 5 days
Experimental: (§2) Iron toxicity and the formation of .OH were stimulated by an intravitreous application of FeSO4 with or without the presence of the test compounds FA and/or TMP. For the dose-response iron toxicity experiments, 24 mM (72 nmoles), 8 mM (24 nmoles) and 0.8 mM (2.4 nmoles) of FeSO4 were utilized. To test drug biochemical effects on the oxidative stress caused by the experimental siderosis, an intravitreous injection of FA (100 mM) was carried out 60 minutes before siderosis. In further electro-physiological and immuohistochemical studies, with or without pre-administration of 0.5 or 0.1 nmoles of FA/TMP, a medium amount of FeSO4 (25 nmole) was chosen to induce damage due to such as an oxidative stress so as not to reach the maximal pharmacological effect.
The time course of the experiments involved enucleation of the rat eyes and retrieval of the retinal pieces on day 1 (Western blot), day 5 (immunohistochemistry) and day 28 (histopathology) after experimental siderosis with/without each test compound.
For immunohistochemical analysis, rats were intracardially perfused first with 0.9% saline and then with 4% (w/v) paraformaldehyde. […] In order to observe the expression of ‘ROS-related enzymes’, retinal sections were incubated with primary antibody: rabbit polyclonal anti-rat manganese SOD (1:100; Upstate, NY) or rabbit anti-catalase (1:1000; Calbiochem, CA). […]

[7] = tested on: rats given experimental siderosis; assay: Flash ERG in experimental siderosis (intravitreous FeSO4 or iron particle); settings: for Effect on FeSO4 induced reduction in the b-wave amplitudes: 0.5 or 0.1 nmoles pre-administered, 25 nmole FeSO4, 3 and 5 days after siderosis, vs saline-treated animals
Experimental: The animals were first dark adapted for at least 8 hours, anaesthetized as already described and the pupils dilated with 1% tropicamide and 2.5% phenylephrine. The animal was then placed in a stereotaxic frame and the body temperature maintained at 37° C. with an electrical blanket. A platinum wire loop was placed on the corneal surface to act as the recording electrode. A ground electrode was connected to the scruff of the back together with a reference electrode to the tongue of the animal. A strobe was placed 5 cm in front of the animal to provide a stimulus of 0.5 Hz. Fifteen consecutive responses were recorded at two-second intervals and at 10 kHz; the responses were amplified and averaged using an amplifier P511/regulated power supply RPS107/stimulator PS22 (Grass-Telefactor, Astro-Med. Inc., R1, USA). The a-wave amplitude was measured from the baseline to the trough of the a-wave and the b-wave amplitude was measured from the trough of the a-wave to the peak of the b-wave.
The Wistar rats were anesthetized with an intramuscular injection of ketamine (100 mg/kg) and xylazine (5 mg/kg), and placed in a stereotaxic frame. The chronic model of experimental siderosis was established as follows. Through a port punctured by a 20-gauge intravenous catheter (0.5 mm from the corneal limbus), an autoclaved defined iron particle was slowly and carefully implanted into the vitreous cavity of one eye of each experimental rat through the catheter sheath by the catheter inner shaft (a needle). The punctured wound was then sutured with sterilized 10-0 nylon to keep a close system. Similarly (0.5 mm from the corneal limbus) and guided by the 20-gauge intravenous catheter, an autoclaved acrylate chip was implanted into the vitreous cavity of one eye of each control rat.
Similarly, the acute model of experimental siderosis was set up utilizing various concentrations of iron sulfate with the control group being injected with saline. The animals were kept normothermic with a heated water jacket after anesthesia and were placed on an electrical blanket during recovery (both set at 37° C.).
as §2

[8] = tested on: hydroxyl radicals (.OH); assay: ROS assay in vivo (2,3-DHBA by vitreous microdialysis) in experimental siderosis
Experimental: Iron toxicity and the formation of .OH were stimulated by an intravitreous application of FeSO4 with or without the presence of the test compounds FA and/or TMP. For the dose-response iron toxicity experiments, 24 mM (72 nmoles), 8 mM (24 nmoles) and 0.8 mM (2.4 nmoles) of FeSO4 were utilized. To test drug biochemical effects on the oxidative stress caused by the experimental siderosis, an intravitreous injection of FA (100 mM) was carried out 60 minutes before siderosis.
Trapping of hydroxyl radicals was accomplished by perfusing physiological saline containing 5 mM salicylic acid through a microdialysis probe (CMA/12, PC 14/01, CMA/Microdialysis, Stockholm, Sweden) inserted into the vitreous cavity of a rat eye after intra-vitreous implantation of either an iron or acrylate chip for the defined chronic model and its control. […] Salicylate was infused at the rate of 1.1 μl/min using a 1-ml Exmire microsyringe attached to a microdialysis pump (CMA-100, CMA/Microdialysis, Stockholm, Sweden). This was carried out every 15 or 20 minutes starting either 60 or 20 minutes before the implantation/injection and continued for 6 hours or 120 minutes following treatment, respectively. […] The hydroxyl radicals were quantified by using 8, 16, 24, 32 and 40 pmoles of 2,3-DHBA (which is photosensitive and can be dissolved in ethanol) as an internal standard.

[9] = tested on: glutamate release in the retina
Experimental: Using the same microdialysis system as the ROS assay in vivo, each microdialysate was assayed for the presence of derivatized glutamate product by HPLC with a fluorescence detector (FL; model CMA/280, CMA/Microdialysis, Stockholm, Sweden). The derivatization reaction was carried out at room temperature. O-phthalaldehyde (OPA; 27 mg; Fisher Scientific, Loughborough, UK) was dissolved in 1 ml methanol, 9 ml 0.4 M potassium tetraborate (MW: 303.53; borate buffer: 1.5 g borate plus pure water adjusted to pH 9.5 with 6 M NaOH and then added with water to 100 ml) and 5 μl β-mercaptoethanol (Fisher Scientific, Loughborough, UK). The OPA stock reagent was covered in foil and stored at −20° C. for 1 month. The OPA working solution was prepared each day by diluting 1 ml of the OPA stock reagent with 3 ml of potassium tetraborate (0.4 M). […] For the HPLC separation, the detector output voltage (signal) was monitored using one data system (Scientific Information Service Corporation, Taiwan). […]
Before use, the mobile phase was filtered through a 0.22 μm filter (Millipore) using vacuum assistance. […] The detection sensitivity was 10 M. All standard samples and test samples were analyzed in duplicate.

[10] = tested on: cortical cells; settings: 40 μM FeSO4 vs saline; n=5
Experimental: The cortical cells to be tested were placed on a cover slip and loaded with calcium ion sensitive dye by incubation with a final concentration of 5 μM of the acetoxymethyl ester form of Fura-2 for 30 min at 37° C. in the 1 ml loading buffer. The cover slip was washed three times with buffer containing 150 mM NaCl, 5 mM KCl, 2.2 mM CaCl2, 1 mM MgCl2, 5 mM glucose, 10 mM HEPES, pH 7.4. A micropipette was pulled from a glass capillary by a micropipette puller (P-97, Sutter Instrument Co.) and the tip was polished in a microforge (o.d. 2 μm, MF-83, Narishige). The micropipette was backfilled with the test compound (40 μM FeSO4 or saline) using a fine tip syringe. The cover slip was mounted on an inverted microscope to measure single-cell fluorescence. The ejection mircropipette was positioned at a distance of 10 μm from a cell. A short pulse (0.5s) of the test compound was then applied to a single cell through the micropipette by a microinjection system (Picospritzer II, General Valve) with a pressure of 15 psi. The intracellular calcium concentration, [Ca^2+]i, was calculated using the ratio between the fluorescence at 340 nm and at 380 nm (F340/F380). Changes in the fluorescence ratio represent the changes in the [Ca^2+]i (Yang, D. M., et al. J Microsc 209: 223-227, 2003).

[11] = 0.5 nmole i.v.i. 60 min before 60 min HIOP, 3 days after I/R
[12] = 0.5 nmole i.v.i. 60 min before 60 min HIOP, 5 days after I/R
[13] = 0.5 nmole i.v.i. 60 min before 60 min HIOP, 7 days after I/R
[14] = 0.5 nmole i.v.i. 60 min before ischaemia
[15] = 0.5 nmole i.v.i. 1 hour before ischaemia
[16] = FeSO4 injected five days earlier, particular example

Compound: COc1cc(/C=C/C(=O)O)ccc1O [FA, ferulic acid]
- ERG b-wave ratio (ischaemic eye vs contralateral normal eye) ([1]; 0.1 nmole i.v.i. 60 min before 60 min HIOP, 3 days after I/R): 32.2402±6.3012
- ERG b-wave ratio (ischaemic eye vs contralateral normal eye) ([1]; 0.1 nmole i.v.i. 60 min before 60 min HIOP, 5 days after I/R): 35.0948±4.6412
- ERG b-wave ratio (ischaemic eye vs contralateral normal eye) ([1]; 0.1 nmole i.v.i. 60 min before 60 min HIOP, 7 days after I/R): 47.0775±5.5396
- ERG b-wave ratio (ischaemic eye vs contralateral normal eye) [1, 11]: 48.3576±3.1633
- ERG b-wave ratio (ischaemic eye vs contralateral normal eye) [1, 12]: 56.4287±6.9891
- ERG b-wave ratio (ischaemic eye vs contralateral normal eye) [1, 13]: 65.8600±6.0998
- Effect on I/R-induced changes in ChAT immunoreactivity ([2]; 0.1 nmole i.v.i. 60 min before ischaemia): only a partial counteracting effect
- Effect on I/R-induced changes in ChAT immunoreactivity [2, 14]: obviously nullified
- Attenuation of ischaemia-induced reduction in thickness of Thy-1 immunolabeling [3]: around 15%
- Thy-1 mRNA/β-actin mRNA ratio ([4]; 0.1 nmole i.v.i. 1 hour before ischaemia): 65.8968±11.9579
- Thy-1 mRNA/β-actin mRNA ratio [4, 15]: 85.1745±10.3177
- Levels of 2,3-DHBA (.OH) in vitreous dialysate ([5]; 0.1 nmole pre-treatment): 3.48 pmol/15 µL perfusate
- Attenuation of ischaemia-evoked increased 2,3-DHBA levels ([5]; 0.5 nmole pre-treatment, 60 minutes of ischaemia, vs vehicle-pre-treated ischaemic eyes): around 2 folds
- Levels of 2,3-DHBA (.OH) in vitreous dialysate ([5]; 0.5 nmole pre-treatment): 2.8574±0.7186 pmole/15 μl perfusate
- Effect on iron-induced changes in ChAT immunoreactivity [6]: counteracted
- Effect on FeSO4 induced reduction in the b-wave amplitudes [7]: significantly alleviated
- Effect on production of OH (2,3-DHBA) in siderosis ([8]; 100 μM, siderotic rats insulted by 8 mM FeSO4, vs saline): significantly decreased
- Effect on formation of .OH (2,3-DHBA) in siderosis ([8]; i.v.i. 60 minutes before siderosis, 8 mM FeSO4): dose-dependently and significantly decreased

Compound: Cc1nc(C)c(C)nc1C [TMP, tetramethylpyrazine]
- ERG b-wave ratio (ischaemic eye vs contralateral normal eye) [1, 11]: 17.9250±11.7135
- ERG b-wave ratio (ischaemic eye vs contralateral normal eye) [1, 12]: 17.1500±6.8996
- ERG b-wave ratio (ischaemic eye vs contralateral normal eye) [1, 13]: 20.1750±8.5027
- Effect on I/R-induced changes in ChAT immunoreactivity [2, 14]: not affected
- Thy-1 mRNA/β-actin mRNA ratio [4, 15]: 46.5876±14.4476
- Levels of 2,3-DHBA (.OH) in vitreous dialysate ([5]; 0.5 nmole pre-treatment): 4.6865±1.2661 pmole/15 μl perfusate
- Effect on FeSO4 induced reduction in the b-wave amplitudes [7]: tended to alleviate

Compound: ferrous sulfate [FeSO4]
- Glutamate release in the retina ([9]; 24 mM and/or 8 mM FeSO4, peaks 20 and 40 minutes after siderosis, vs saline): dose-dependent release of glutamate
- Glutamate concentration in vitreous dialysate ([9]; 20 minutes after ferrous sulfate treatment (8 mM)): 722 nM
- Change in [Ca^2+]i (fura-2 ratio F340/F380) [10]: significant increase
- ERG b-wave ratio after intravitreous FeSO4 ([7]; 8 mM FeSO4 (3 μl) intravitreous, at 2 hours): about 45%
- ERG a-wave ratio of siderotic eye to normal fellow eye [7, 16]: 40.56%
- ERG b-wave ratio of siderotic eye to normal fellow eye [7, 16]: 30.70%
- 2,3-DHBA formed ([8]; 20 minutes after injection of 8 mM FeSO4): 91.23 pmol
